Tests used:
[1] = target: T1, PxCDA2 (Podosphaera xanthii, UniProt A0A6S4IDJ3); test: fluorescamine assay, colloidal chitin substrate; format: biochemical
T1 construct: recombinant, N-terminal 6-His tag, expressed in E. coli
Text: fluorescamine assay, colloidal chitin substrate on PxCDA2

[2] = target: T2, PxCDA1 (Podosphaera xanthii, UniProt A0A6S4IFB1); test: fluorescamine assay, colloidal chitin substrate; format: biochemical
T2 construct: recombinant, N-terminal 6-His tag, expressed in E. coli
T2 sequence (A0A6S4IFB1 23-324 limits assumed): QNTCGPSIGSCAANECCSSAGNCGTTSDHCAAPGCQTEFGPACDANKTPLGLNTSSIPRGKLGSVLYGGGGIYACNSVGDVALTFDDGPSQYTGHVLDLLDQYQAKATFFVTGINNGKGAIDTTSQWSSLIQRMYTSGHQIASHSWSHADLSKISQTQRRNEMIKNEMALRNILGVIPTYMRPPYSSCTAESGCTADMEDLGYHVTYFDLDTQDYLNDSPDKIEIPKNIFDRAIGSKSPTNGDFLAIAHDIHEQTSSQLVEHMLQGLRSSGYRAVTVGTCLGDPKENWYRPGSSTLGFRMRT
Text: fluorescamine assay, colloidal chitin substrate on PxCDA1

T1 sequence (A0A6S4IDJ3 23-314 limits assumed): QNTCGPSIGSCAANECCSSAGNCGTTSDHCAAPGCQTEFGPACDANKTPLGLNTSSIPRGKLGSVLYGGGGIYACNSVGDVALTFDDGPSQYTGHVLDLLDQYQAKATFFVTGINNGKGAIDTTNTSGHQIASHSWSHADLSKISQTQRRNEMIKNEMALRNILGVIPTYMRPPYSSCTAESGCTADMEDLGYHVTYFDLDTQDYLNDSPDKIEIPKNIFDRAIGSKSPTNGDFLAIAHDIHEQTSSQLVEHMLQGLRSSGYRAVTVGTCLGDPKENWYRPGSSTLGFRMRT

Compound: C=CCN1C(=O)NC(=O)/C(=C/c2ccc(OCC(=O)O)c(OC)c2)C1=O [VS#2-3]
- inhibition at 100 µM [1]: 74.5%
- inhibition at 100 µM [2]: 86.8%

Compound: CN1C(=O)C(=Cc2cccc(OCC(=O)O)c2)C(=O)N(C)C1=O [VS#2-1]
- inhibition at 100 µM [1]: 74.5%
- inhibition at 100 µM [2]: 86.9%

Compound: Cn1c(=O)n(CC(=O)O)c(=O)c2c1nc1n2CCS1 [VS#2-2]
- inhibition at 100 µM [1]: 93%
- inhibition at 100 µM [2]: 79.4%
